Earlier results in patent US8911774B2, “Topical composition for anti-aging skin treatment using dual DNA repair mechanism and method of use” (Cellhealth Technologies Ltd., priority 2009, dated 2014).
Values belong to the molecule of their own block, whether it stands above or below them.

Key:
melanin synthesis = conditions: at a concentration of 0.1%
skin damage = conditions: shown clinically

tyrosinase-inhibition activity relative to Kojic acid (tyrosinase): 25 times | tyrosinase-inhibition activity relative to ascorbic acid (tyrosinase): 75 times
Molecule: CC1(C)C=Cc2c(ccc3c2OC[C@@H](c2ccc(O)cc2O)C3)O1 [Glabridin]

Molecule: CCCCCCCCC(CCCCCC)C(=O)OC[C@H](OC(=O)C(CCCCCC)CCCCCCCC)[C@H]1OC(=O)C(OC(=O)C(CCCCCC)CCCCCCCC)=C1OC(=O)C(CCCCCC)CCCCCCCC (stereo partly drawn) [tetrahexyldecyl ascorbate]
reduction of melanin synthesis (melanin synthesis): 80% | p53 expression induced by UV-B radiation (p53): decreases | 8-OHdG induced by UV-A radiation (8-OHdG): decreases

Molecule: Tocotrienol
strength and effectiveness at repairing skin damage relative to regular Vitamin E (skin damage): 40-50 times
